Results published in patent US20260035452A1 (THE UNIVERSITY OF BIRMINGHAM, priority 2022, published 2026).
No end group written: not given here.

System: Human dermal blood endothelial cells (HDBEC)
Assay: HDBEC stimulation (flow cytometry, IL-6 Elisa)
Type: cell-based
Details: 24 h
Experimental: FIG. 10: Human dermal blood endothelial cells (HDBEC) were treated with: IL-17 vehicle (Ctrl), IL-17 or FM-0410 (100 ng/ml), alone or in combination with TNF-α (100 U/ml) for 24 h. Cells were washed, gated in their totality and singlet before the identification of IL-17Rs (RA and RC) (A, B), ICAM (C) and VCAM (D) expression. Histogram values (expressed as MIF) indicate the total positive cells (A-D). In (E) are shown phase-contrast micrographs of confluent monolayers of untreated or treated (as reported before) HDBEC. Total adhesion (expressed as INT/mm^2, F) and % of transmigration (G) are calculated with Image Pro programme (DataCell, Finchampstead). Inflammatory supernatants from all experimental conditions were assayed by Elisa for IL-6 (H) expressed in pg/ml. Data were presented as means±S.D. of n=3 healthy donors. Statistical analysis was conducted by one-way ANOVA followed by Bonferroni's for multiple comparisons. ^#P≤0.05, ^##P≤0.01, ^###P≤0.001, ^####P≤0.0001 vs Ctrl group; *P≤0.05 vs TNF-α+IL-17 group; ^∘P≤0.05, ^∘∘∘P≤0.001, ^∘∘∘∘P≤0.0001 vs TNF-α group.
Human dermal blood endothelial cells (HDBEC): Primary human dermal blood endothelial cells (HDBECs) were purchased from PromoCell and cultured in the manufacturer's recommended endothelial cell growth medium MV (PromoCell, Heidelberg, Germany). HDBECs were seeded onto 12-well tissue culture plates after 4 passages at a seeding density yielding confluent monolayers. HDBEC monolayers were washed in endothelial cell growth medium MV warmed to 37° C. and stimulated with IL-17 or FM-0410 (100 ng/ml) alone or in a combination with TNF-α (100 U/ml) for 24 h at 37° C. Cells were stimulated for 24 h, before staining with IL-17Rs (RA or RC) or ICAM/VCAM adhesion receptors using a Flow cytometry assay. Supernatants were collected and measured to evaluate IL-6 or TNF-α levels.
Flow Cytometry: HDBEC, collected after 24 h of treatment, were washed with PBS without Ca^2+ and Mg^2+ containing 25 mM lactose for 20 min at room temperature with occasional mixing. Cells were, then, incubated with FcR blocking agents (Miltenyi) in PBS without Ca^2+ and Mg^2+ containing lactose before staining cells with antibodies IL-17 Receptor A (1:100; clone 133617) and IL-17 Receptor C (1:100; clone 309822). Moreover, HDBEC cells were also stained with ICAM (BBIG-V3; 1:50, APC, BD Biosciences) and VCAM (3E2; 1:50, FITC, BD Biosciences). Protein expression was analysed by flow cytometry on a Dako CyAn (Beckman Coulter, High Wycombe, U.K.), and data were analysed using MRFIow and FlowJo software operation. The unspecific binding of antibodies was quantified by using corresponding isotype controls.
Elisa assay: The levels of IL-6 at 24 h were measured using commercially available enzyme-linked immunosorbent assay kits (ELISA kit, R&D System, Milan, Italy) according to the manufacturer's instructions. Briefly, 100 μl of supernatants, diluted standards, quality controls, and dilution buffer (blank) were applied on a plate with the monoclonal antibody for 2 h. After washing, 100 μl of biotin-labeled antibody was added and incubation continued for 1 h. […] The addition of 100 μl of the substrate and stop solution represented the last steps before the reading of absorbance (measured at 450 nm) on a microplate reader. Antigen levels in the samples were determined using a standard curve and expressed as pg/ml.

[1] = 100 ng/ml in combination with TNF-α (100 U/ml)

Ac-LEKILVSVGATAVTPIVHHVAC [FM-0410]
ICAM expression [1]: upregulation
IL-17RA receptor expression [1]: No effects
IL-17RC receptor expression [1]: No effects
VCAM expression [1]: upregulation
IL-6 levels (marker of cell activation) (peptide co-stimulation with TNF-α): upregulation
